# According to patent publication US12692264B2, “Pyrimidine or pyridine derivative, preparation method therefor, and application thereof in pharmacy” (ABBISKO THERAPEUTICS CO., LTD., priority 2021, dated 2026):
# Target: Ba/F3 EGFR-D770-N771ins_SVD (Homo sapiens, UniProt P00533, DUP768-770, cells depend on it)
# Assay: Cell proliferation study (CellTiter-Glo, 72 hrs), Ba/F3 EGFR-D770-N771ins_SVD
# Assay type: cell-based
# Settings: CTG, * = average of multiple measurements, read-out: Ba/F3 EGFR-D770-N771ins_SVD IC50
# Experimental: (I) Reagents and Materials
# • Fetal bovine serum FBS (GBICO, Cat #10099-141); • CellTiter-Glo® luminescent cell viability assay kit (Promega, Cat #G7572); • Black transparent flat-bottom 96-well plate (Corning®, Cat #3603). (II) Instruments • SpectraMax multi-label microplate reader MD, 2104-0010A; • Carbon dioxide incubator, Thermo Scientific 3100 series; • Biological safety cabinet, Thermo Scientific, 1300 series model A2; • Inverted microscope, Olympus, CKX41SF; • Siemens refrigerator KK25E76T1. (III) Cell Lines and Culture Conditions
# (IV) Experimental Procedures 1. Cell Culture and Inoculation: • (1) Cells in the logarithmic growth phase were harvested and counted using a […]. The cell viability was determined by the trypan blue dye exclusion method to ensure cell viability above 90%. • (2) The cell concentration was adjusted to reach a desired final density; 90 μL of cell suspension was added to a 96-well plate. • (3) The cells were incubated overnight in the 96-well plate at 37° C., 5% CO2 and with 95% humidity. 2. T0 Benchmark Data: • (1) 10 μL of PBS was added to each well of the TO plate containing the cells. • (2) The CTG reagent was thawed and the cell plate was equilibrated to room temperature for 30 min. • (3) An equal volume of CTG solution was added to each well. • (4) The cells were lysed by shaking on an orbital shaker for 5 min. • (5) The cell plate was left to stand at room temperature for 20 min to stabilize the fluorescence signal. • (6) The fluorescence signal values of TO were read. 3. Dilution and Addition of Compounds • (1) According to the compound information table, a corresponding volume of DMSO was added to the corresponding compound powder to prepare a 10 mM stock solution. • (2) A 1000-fold, 3.16-fold-diluted compound solution was prepared. • (3) The 1000× diluted compound solution was diluted 100-fold with PBS to prepare a 10-fold compound solution with a maximum concentration of 10 μM, including 9 concentrations, with 3.16-fold dilution, and 10 μL of the medicament solution was added to each well of the 96-well plate to seed the cells. Triplicate wells were set for each compound concentration, with a final concentration of DMSO being 0.1%. • (4) The cells were placed in the 96-well plate containing the medicament at 37° C., 5% CO2 and with 95% humidity, and cultured for 72 hrs before CTG analysis. 4. Fluorescence Signal Reading • (1) The CTG reagent was thawed and the cell plate was equilibrated to room temperature for 30 min. • (2) An equal volume of CTG solution was added to each well. • (3) The cells were lysed by shaking on an orbital shaker for 5 min. • (4) The cell plate was left to stand at room temperature for 20 min to stabilize the fluorescence signal. • (5) The fluorescence values were read. 5. Data Processing
# Data were analyzed using GraphPad Prism 7.0 software and fitted data were regressed using non-linear S-curves to obtain dose-response curves from which IC50 values (in nM) were calculated.
# Chain of Ba/F3 EGFR-D770-N771ins_SVD (P00533 with tags, fused parts or gaps DUP768-770): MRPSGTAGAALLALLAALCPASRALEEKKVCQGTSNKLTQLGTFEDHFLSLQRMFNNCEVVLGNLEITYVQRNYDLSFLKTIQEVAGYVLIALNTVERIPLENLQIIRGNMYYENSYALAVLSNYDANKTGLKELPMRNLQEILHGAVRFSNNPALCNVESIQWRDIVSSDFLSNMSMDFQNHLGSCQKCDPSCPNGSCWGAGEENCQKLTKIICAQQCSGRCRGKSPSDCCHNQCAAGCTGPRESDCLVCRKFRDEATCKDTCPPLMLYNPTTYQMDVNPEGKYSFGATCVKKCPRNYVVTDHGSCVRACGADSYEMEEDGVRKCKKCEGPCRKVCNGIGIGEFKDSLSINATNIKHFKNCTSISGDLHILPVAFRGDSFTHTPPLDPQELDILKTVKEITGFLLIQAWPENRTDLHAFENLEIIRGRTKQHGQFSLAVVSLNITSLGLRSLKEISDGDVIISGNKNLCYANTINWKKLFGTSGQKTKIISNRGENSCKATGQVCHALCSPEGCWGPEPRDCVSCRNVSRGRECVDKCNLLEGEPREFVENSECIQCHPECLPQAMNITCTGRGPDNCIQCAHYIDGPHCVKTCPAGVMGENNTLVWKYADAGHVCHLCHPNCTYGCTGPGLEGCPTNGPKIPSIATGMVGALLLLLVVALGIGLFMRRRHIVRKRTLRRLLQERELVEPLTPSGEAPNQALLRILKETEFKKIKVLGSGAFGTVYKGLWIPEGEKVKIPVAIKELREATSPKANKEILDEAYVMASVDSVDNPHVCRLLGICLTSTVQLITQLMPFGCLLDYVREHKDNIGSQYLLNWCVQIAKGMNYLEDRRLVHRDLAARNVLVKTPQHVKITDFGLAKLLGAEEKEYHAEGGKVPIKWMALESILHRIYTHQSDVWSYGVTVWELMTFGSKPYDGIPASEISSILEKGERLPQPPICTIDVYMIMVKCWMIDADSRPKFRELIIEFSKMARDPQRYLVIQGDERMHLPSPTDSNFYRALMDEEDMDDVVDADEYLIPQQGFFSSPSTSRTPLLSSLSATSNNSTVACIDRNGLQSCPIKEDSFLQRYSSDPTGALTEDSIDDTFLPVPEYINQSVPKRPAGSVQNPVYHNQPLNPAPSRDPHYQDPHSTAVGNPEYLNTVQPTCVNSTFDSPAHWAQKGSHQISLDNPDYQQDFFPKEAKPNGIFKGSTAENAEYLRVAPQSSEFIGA
row,GI50 [nM],Compound
1,2850,"C=CC(=O)Nc1cc(Nc2ncc(C(=O)OC(C)C)c(N3CC(C)(C)c4nc(C#CC)ccc43)n2)c(OC)cc1N1CCN(C2CC2)CC1 [Example 75, isopropyl 2-((5-acrylamido-4-(4-cyclopropyl-piperazin-1-yl)-2-methoxyphenyl)ami-no)-4-(3,3-dimethyl-5-(prop-1-yn-1-yl)-2,3-dihydro-1H-pyrrolo[3,2-b]pyridin-1-yl)pyrimidine-5-carboxylate]"
2,30.6,"[2H]C([2H])([2H])N(CCN(C)C)c1cc(OC)c(Nc2ncc(C(=O)OC(C)C)c(N3CC4(CC4)c4nc(C)ccc43)n2)cc1NC(=O)C=C [Example 68, isopropyl 2-((5-acrylamino-4-((2-(dimethylami-no)ethyl)(methyl-d3)amino)-2-methoxyphenyl)amino)-4-(5′-methylspiro(cyclopropane-1,3′-pyrrolo[3,2-b]pyridin)-1′(2′H)-yl)pyrimidine-5-carboxylate]"
3,111,"C=CC(=O)Nc1cc(Nc2ncc(C(=O)OC(C)C)c(N3CC4(CC(F)(F)C4)c4nc(C)ccc43)n2)c(OC)cc1N(C)CCN(C)C [Example 24, isopropyl 2-((5-acrylamido-4-((2-(dimethylami-no)ethyl)(methyl)amino)-2-methoxy-phenyl)amino)-4-(3,3-difluoro-5′-methylspiro(cyclobutane-1,3′-pyrrolo[3,2-b]pyridin)-1′(2′H)-yl)pyrimidine-5-carboxylate]"
4,552,"[2H]C1([2H])N(c2nc(Nc3cc(NC(=O)C=C)c(N4CCN(C5CC5)CC4)cc3OC)ncc2C(=O)OC(C)C)c2ccc(C)nc2C1(C)C [Example 53, isopropyl 2-((5-acrylamido-4-(4-cyclopropyl-piperazin-1-yl)-2-methoxy-phenyl)amino)-4-(3,3,5-trimethyl-2,3-dihydro-1H-pyrrolo[3,2-b]pyridin-1-yl-2,2-d2)pyrimidine-5-carboxylate]"
5,39,"C=CC(=O)Nc1cc(Nc2ncc(C(=O)OC(C)C)c(N3CC(C)(C)c4nc(C(=C)C)ccc43)n2)c(OC)cc1N(C)CCN(C)C [Example 14, isopropyl 2-((5-acrylamido-4-((2-(dimethylami-no)ethyl)(methyl)amino)-2-methoxy-phenyl)amino)-4-(3,3-dimethyl-5-(prop-1-en-2-yl)-2,3-dihydro-1H-pyrrolo[3,2-b]pyridin-1-yl)pyrimidine-5-carboxylate]"
6,92.2,"C=CC(=O)Nc1cc(Nc2ncc(C(=O)OC(C)C)c(N3CC(C)(C)c4nc(C#N)ccc43)n2)c(OC)cc1N(C)CCN(C)C [Example 23, isopropyl 2-((5-acrylamido-4-((2-(dimethylami-no)ethyl)(methyl)amino)-2-methoxy-phenyl)amino)-4-(5-cyano-3,3-dimethyl-2,3-dihydro-1H-pyrrolo[3,2-b]pyridin-1-yl)pyrimidine-5-carboxylate]"
7,135,"C=CC(=O)Nc1cc(Nc2ncc(C(=O)OC(C)C)c(N3CC(C)(C)c4nc(C(F)(F)F)ccc43)n2)c(OC)cc1N(C)CCN(C)C [Example 17, isopropyl 2-((5-acrylamido-4-((2-(dimethylami-no)ethyl)(methyl)amino)-2-methoxy-phenyl)amino)-4-(3,3-dimethyl-5-(trifluoromethyl)-2,3-dibydro-1H-pyrrolo[3,2-b]pyridin-1-yl)pyrimidine-5-carboxylate]"
8,339,"C=CC(=O)Nc1cc(Nc2ncc(C(=O)OC(C)C)c(N3CC(C)(C)c4nc(N5CCC5)ccc43)n2)c(OC)cc1N(C)CCN(C)C [Example 38, isopropyl 2-((5-acrylamido-4-((2-(dimethylami-no)ethyl)(methyl)amino)-2-methoxy-phenyl)amino)-4-(5-(azetidin-1-yl)-3,3-dimethyl-2,3-dihydro-1H-pyrrolo[3,2-b]pyridin-1-yl)pyrimidine-5-carboxylate]"
9,443,"C=CC(=O)Nc1cc(Nc2ncc(C(=O)OC(C)C)c(N3CC(C)(C)c4nc(C)ccc43)n2)c(OC)cc1N1CCN(CC)CC1 [Example 34, isopropyl 2-((5-acrylamido-4-(4-ethylpiperazin-1-yl)-2-methoxyphenyl)amino)-4-(3,3,5-trimethyl-2,3-dihydro-1H-pyrrolo[3,2-b]pyridin-1-yl)pyrimidine-5-carboxylate]"
10,545,"C=CC(=O)Nc1cc(Nc2ncc(C(=O)OC(C)C)c(N3CC(C)(C)c4nc(C)ccc43)n2)c(OC)cc1N1CCN(C2CC2)CC1 [Example 39, isopropyl 2-((5-acrylamido-4-(4-cyclopropyl-piperazin-1-yl)-2-methoxy-phenyl)amino)-4-(3,3,5-trimethyl-2,3-dihydro-1H-pyrrolo[3,2-b]pyridin-1-yl)pyrimidine-5-carboxylate]"
11,503,"C=CC(=O)Nc1cc(Nc2ncc(C(=O)OC(C)C)c(N3CC(C)(C)c4nc(C)ccc43)n2)c(OC)cc1N1CCN(C)CC1 [Example 33, isopropyl 2-((5-acrylamido-2-methoxy-4-(4-methylpiperazin-1-yl)phenyl)amino)-4-(3,3,5-trimethyl-2,3-dihydro-1H-pyrrolo[3,2-b]pyridin-1-yl)pyrimidine-5-carboxylate]"
12,78.3,"C=CC(=O)Nc1cc(Nc2ncc(C(=O)OC(C)C)c(N3CC(C)(C)c4nc(C)ccc43)n2)c(OC)cc1N1CC[C@H](N(C)C)C1 [Example 13, isopropyl (S)-2-((5-acrylamido-4-(3-(dimethyl-amino)pyrrolidin-1-yl)-2-methoxy-phenyl)amino)-4-(3,3,5-trimethyl-2,3-dihydro-1H-pyrrolo[3,2-b]pyridin-1-yl)pyrimidine-5-carboxylate]"
13,116,"C=CC(=O)Nc1cc(Nc2ncc(C(=O)OC(C)C)c(N3CC(C)(C)c4nc(Br)ccc43)n2)c(OC)cc1N(C)CCN(CC)CC [Example 90, isopropyl 2-((5-acrylamido-4-((2-(diethyl-amino)ethyl)(methyl)amino)-2-methoxyphenyl)amino)-4-(5-bromo-3,3-dimethyl-2,3-dihydro-1H-pyrrolo[3,2-b]pyridin-1-yl)pyrimidine-5-carboxylate]"
14,76.2,"C=CC(=O)Nc1cc(Nc2ncc(C(=O)OC(C)C)c(N3CC(C)(C)c4nc(C)ccc43)n2)c(OC)cc1N(CC)CCN(C)C [Example 45, isopropyl 2-((5-acrylamido-4-((2-(dimethylami-no)ethyl)(ethyl)amino)-2-methoxy-phenyl)amino)-4-(3,3,5-trimethyl-2,3-dihydro-1H-pyrrolo[3,2-b]pyridin-1-yl)pyrimidine-5-carboxylate]"
15,255,"C=CC(=O)Nc1cc(Nc2ncc(C(=O)OC(C)C)c(N3CC(C)(C)c4nc(C)ccc43)n2)c(OC)cc1N1CCC[C@@H](N(C)C)C1 [Example 61, isopropyl (R)-2-((5-acrylamido-4-(3-(dimethyl-amino)piperidin-1-yl)-2-methoxy-phenyl)amino)-4-(3,3,5-trimethyl-2,3-dihydro-1H-pyrrolo[3,2-b]pyridin-1-yl)pyrimidine-5-carboxylate]"
16,119,"C=CC(=O)Nc1cc(Nc2ncc(C(=O)OC(C)C)c(N3CC(C)(C)c4nc(C#CC(C)C)ccc43)n2)c(OC)cc1N(C)CCN(C)C [Example 19, isopropyl 2-((5-acrylamido-4-((2-(dimethylami-no)ethyl)(methyl)amino)-2-methoxy-phenyl)amino)-4-(3,3-dimethyl-5-(3-methylbut-1-yn-1-yl)-2,3-dihydro-1H-pyrrolo[3,2-b]pyridin-1-yl)pyrimidine-5-carboxylate]"
